Test systems include SK-MEL-28; HOP-62; NCI-H226; SNB-19; Malme-3M; OVCAR-3; U-251; NCI-H522; MDA-MB-231; OVCAR-5; TK-10; OVCAR-8; A549; ACHN; NCI-H460; DU-145; NCI/ADR-RES; SR; CCRF-CEM; A498.
Common to all, as to experiment: NCI-60 cell line screen, 48 h

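Test compounds were applied to cells in 96-well plates for 48 hours at 5 doses. At the GI50, growth is halved.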 Calls of active or inactive are those of the source. No stated cut-off is given here; in the data, active = GI50 up to about 1.1 µM and inactive = higher.

Turning to `Cc1ccc(S(=O)(=O)ON2C(=O)c3cccc4cc([N+](=O)[O-])cc(c34)C2=O)cc1`, the GI50 in the experiment on SK-MEL-28 was > 100 µM (inactive); with HOP-62, > 100 µM (inactive); in the experiment with NCI-H226 it was 54.8 µM (inactive); with SNB-19 it was 57.8 µM (inactive); with Malme-3M, 44.2 µM (inactive); with OVCAR-3 it was 35.3 µM (inactive). The GI50 with U-251 was > 100 µM (inactive); with NCI-H522, 56.2 µM (inactive); with MDA-MB-231, 56.2 µM (inactive); with OVCAR-5, > 100 µM (inactive); in the experiment on TK-10 it was 42.9 µM (inactive); in the experiment with OVCAR-8, > 100 µM (inactive). For the same compound, the GI50 was > 100 µM (inactive) in the experiment on A549; 62.1 µM (inactive) in the experiment with ACHN; 19.6 µM (inactive) with NCI-H460; 89.1 µM (inactive) in the experiment with DU-145; > 100 µM (inactive) in the experiment on NCI/ADR-RES; 26.7 µM (inactive) with SR.
For `CC12CC3OC(=O)C1COC14OC5(C2C1=O)C(O)(CCC1C4CC2OC24CC=CC(=O)C14C)C(=O)OC35C` (configuration not stated), the GI50 in the experiment with SK-MEL-28 was 8.47 µM (inactive); in the experiment with HOP-62, 20.9 µM (inactive); in the experiment with SNB-19 it was 20 µM (inactive); with Malme-3M, 18.5 µM (inactive); in the experiment on CCRF-CEM, 4.1 µM (inactive); in the experiment with OVCAR-3, 13.9 µM (inactive). Also, the GI50 was 14.5 µM (inactive) with U-251; 18.8 µM (inactive) in the experiment with A498; 5.6 µM (inactive) in the experiment on NCI-H522; 18.5 µM (inactive) in the experiment with MDA-MB-231; 18.4 µM (inactive) with OVCAR-5; 13.6 µM (inactive) with TK-10. Besides, the GI50 was 43.8 µM (inactive) in the experiment on OVCAR-8; 27 µM (inactive) in the experiment on A549; 16.4 µM (inactive) in the experiment with ACHN; 30.4 µM (inactive) in the experiment with NCI-H460; 14.6 µM (inactive) in the experiment with DU-145; 38.1 µM (inactive) with NCI/ADR-RES. Besides, the GI50 with SR was 8.85 µM (inactive).
In the case of `O=C1/C(=c2\s/c(=C\c3ccccc3)c(=O)n2-c2ccccc2)SC(=S)N1c1ccccc1`, the GI50 in the experiment with SK-MEL-28 was 63.1 µM (inactive); in the experiment with NCI-H226 it was 25.5 µM (inactive); in the experiment on SNB-19, 46.1 µM (inactive); in the experiment on Malme-3M, 28.7 µM (inactive); in the experiment on CCRF-CEM, 32.8 µM (inactive); in the experiment on OVCAR-3, 27.2 µM (inactive). Further, the GI50 was 23.4 µM (inactive) with U-251; 39.2 µM (inactive) in the experiment on A498; 20.5 µM (inactive) in the experiment on MDA-MB-231; > 100 µM (inactive) in the experiment on OVCAR-5; 28.9 µM (inactive) in the experiment with TK-10; 82.6 µM (inactive) with OVCAR-8. Further, the GI50 is 34.8 µM (inactive) with A549; 22.3 µM (inactive) in the experiment on ACHN; 41 µM (inactive) with NCI-H460; 37.2 µM (inactive) in the experiment with DU-145; 28 µM (inactive) in the experiment with NCI/ADR-RES; 10.7 µM (inactive) in the experiment with SR.
On to `CC(C)(NO)/C(=N\O)c1ccco1`, for which the GI50 with SK-MEL-28, with HOP-62, with NCI-H226, with SNB-19, with Malme-3M and in the experiment on OVCAR-3 was > 100 µM (inactive) in each case. For the same compound, the GI50 with U-251, with MDA-MB-231, with OVCAR-5, with TK-10, in the experiment with OVCAR-8 and in the experiment on A549 was > 100 µM (inactive) in each case. In addition, the GI50 was > 100 µM (inactive) in the experiment with ACHN; > 100 µM (inactive) in the experiment with NCI-H460; > 100 µM (inactive) with DU-145; > 100 µM (inactive) with NCI/ADR-RES; > 10 µM (inactive) in the experiment with SR.
Take `COc1ccc(/C(C)=N/OC(=O)c2c(-c3ccccc3Cl)noc2C)cc1CN1CCOCC1`: the GI50 was 19.7 µM (inactive) in the experiment on SK-MEL-28; 19.1 µM (inactive) in the experiment with HOP-62; 88.1 µM (inactive) in the experiment on NCI-H226; 16.2 µM (inactive) in the experiment on SNB-19; 21.2 µM (inactive) in the experiment with Malme-3M; 66.7 µM (inactive) in the experiment on CCRF-CEM. Further, the GI50 in the experiment with OVCAR-3 is 21.7 µM (inactive); in the experiment on U-251 it was 25.4 µM (inactive); with NCI-H522 it was 17.8 µM (inactive); with MDA-MB-231, 20 µM (inactive); with OVCAR-5, 12.8 µM (inactive); in the experiment on TK-10, 43.1 µM (inactive). Also, the GI50 in the experiment with OVCAR-8 is 29.3 µM (inactive); in the experiment with A549 it was 19.1 µM (inactive); with ACHN, 15.7 µM (inactive); with NCI-H460, 29 µM (inactive); with DU-145 it was 38.3 µM (inactive); in the experiment with NCI/ADR-RES, 34.1 µM (inactive). For the same compound, in the experiment on SR, the GI50 is 25 µM (inactive).
Take `O=C(/C=C/c1ccc2c(c1)OCO2)CC(=O)C(=O)c1c[nH]c2ccccc12`: the GI50 with SK-MEL-28 is > 100 µM (inactive); in the experiment with HOP-62, 41.6 µM (inactive); in the experiment on SNB-19, 46.2 µM (inactive); in the experiment on Malme-3M, > 100 µM (inactive); in the experiment on CCRF-CEM, 26.7 µM (inactive); in the experiment with OVCAR-3, 32 µM (inactive). Also, the GI50 was 30.8 µM (inactive) in the experiment on U-251; 65.5 µM (inactive) in the experiment with A498; 68.5 µM (inactive) with NCI-H522; 39.4 µM (inactive) in the experiment on MDA-MB-231; 77.4 µM (inactive) with OVCAR-5; 38.4 µM (inactive) in the experiment on TK-10. The GI50 in the experiment with OVCAR-8 was 37.1 µM (inactive); with A549, 35.3 µM (inactive); in the experiment with ACHN, 44.2 µM (inactive); with NCI-H460, 33.7 µM (inactive); with DU-145 it was 42.9 µM (inactive); in the experiment on NCI/ADR-RES it was > 100 µM (inactive). Besides, the GI50 with SR was 31.6 µM (inactive).
For the compound `O=C(CN1CCCCC1)c1ccc2[nH]c(=O)oc2c1`, the GI50 in the experiment on SK-MEL-28, with HOP-62, in the experiment on NCI-H226, with SNB-19, with Malme-3M and with CCRF-CEM was > 100 µM (inactive) in each case. Further, the GI50 in the experiment with OVCAR-3, in the experiment with U-251, with A498, in the experiment with MDA-MB-231, with OVCAR-5 and with TK-10 was > 100 µM (inactive) each time. The GI50 in the experiment on OVCAR-8, with ACHN, with NCI-H460, in the experiment on DU-145, with NCI/ADR-RES and in the experiment with SR was > 100 µM (inactive) each time.
Regarding `CCOC(=O)N1[C@@H]2CCC[C@@H]2C(=O)[C@@H]2CCC[C@@H]21`, the GI50 in the experiment with SK-MEL-28, in the experiment with HOP-62, with NCI-H226, in the experiment on SNB-19, in the experiment on CCRF-CEM and with OVCAR-3 was > 100 µM (inactive) in each case. Besides, the GI50 with U-251, in the experiment with A498, in the experiment on MDA-MB-231, in the experiment on OVCAR-5, in the experiment on OVCAR-8 and in the experiment on A549 was > 100 µM (inactive) in each case. Further, the GI50 in the experiment on ACHN, with NCI-H460, with DU-145, in the experiment with NCI/ADR-RES and in the experiment with SR was > 100 µM (inactive) in each case.
For `CCOC(=O)NC(Nc1ncn(C(NC(=O)OCC)(C(F)(F)F)C(F)(F)F)n1)(C(F)(F)F)C(F)(F)F`, the GI50 in the experiment on SK-MEL-28, in the experiment with HOP-62, in the experiment with NCI-H226, with SNB-19, in the experiment on Malme-3M and with CCRF-CEM was > 100 µM (inactive) in each case. In addition, the GI50 with OVCAR-3, in the experiment on U-251, with A498, with MDA-MB-231, in the experiment on OVCAR-5 and with TK-10 was > 100 µM (inactive) in each case. For the same compound, the GI50 with OVCAR-8, in the experiment with A549, in the experiment on ACHN, in the experiment on NCI-H460, in the experiment with DU-145 and in the experiment on NCI/ADR-RES was > 100 µM (inactive) throughout. Further, the GI50 in the experiment with SR was > 100 µM (inactive).
For the compound `CN(C)c1ccc2nc(CC(O)(C(F)(F)F)C(F)(F)F)ccc2c1`, the GI50 with SK-MEL-28, in the experiment with HOP-62, in the experiment on NCI-H226, in the experiment with SNB-19, in the experiment on Malme-3M and in the experiment with CCRF-CEM was > 10 µM (inactive) throughout. In addition, the GI50 in the experiment on OVCAR-3, in the experiment on U-251, in the experiment on A498, in the experiment on NCI-H522, with MDA-MB-231 and in the experiment on OVCAR-5 was > 10 µM (inactive) throughout. Moreover, the GI50 in the experiment with TK-10, in the experiment on OVCAR-8, with A549, in the experiment with ACHN, in the experiment on NCI-H460 and in the experiment with DU-145 was > 10 µM (inactive) throughout. Also, in the experiment on NCI/ADR-RES, the GI50 was > 10 µM (inactive).
For `CC1(C)[C@@H]2C[C@H]1C(Cc1ccc(C[C@H]3c4cc(-c5ccccn5)ncc4[C@H]4C[C@@H]3C4(C)C)cc1)c1cc(-c3ccccn3)ncc12` (some centres not stated), the GI50 was 3.54 µM (inactive) with SK-MEL-28; 0.538 µM (active) in the experiment with HOP-62; 3.32 µM (inactive) in the experiment with SNB-19; 4.53 µM (inactive) with Malme-3M; 0.619 µM (active) in the experiment with CCRF-CEM; 0.679 µM (active) with OVCAR-3. Moreover, the GI50 with U-251 was 1.01 µM (active); in the experiment with A498, 2.36 µM (inactive); with NCI-H522, 7.14 µM (inactive); with MDA-MB-231, 5.35 µM (inactive); in the experiment on OVCAR-5, 1.46 µM (inactive); in the experiment on TK-10 it was 0.841 µM (active). In addition, the GI50 in the experiment with OVCAR-8 is 0.678 µM (active); in the experiment with A549 it was 0.807 µM (active); in the experiment with ACHN, 0.971 µM (active); with NCI-H460, 0.916 µM (active); with DU-145 it was 2.31 µM (inactive); with NCI/ADR-RES it was 2.71 µM (inactive). The GI50 in the experiment on SR is 0.561 µM (active).

Source of the values: ChEMBL document CHEMBL1201862, “PubChem BioAssay data set” (2004).
